Experimental data published in ChEMBL document CHEMBL1201862, “PubChem BioAssay data set” (2004).
The source made the active and inactive calls. No stated cut-off is given here; in the data, actives have a measured IC50 and inactives only a lower limit.

Biological target: Envelope glycoprotein gp160 (Human immunodeficiency virus 1, UniProt Q6QLK5)
Assay: inhibitors of HIV fusion peptide binding, primary screen, biochemical, uHTS, fluorescence dequenching (AID 1986)

Envelope glycoprotein gp160, sequence (Q6QLK5 whole entry, the tested form may be a part): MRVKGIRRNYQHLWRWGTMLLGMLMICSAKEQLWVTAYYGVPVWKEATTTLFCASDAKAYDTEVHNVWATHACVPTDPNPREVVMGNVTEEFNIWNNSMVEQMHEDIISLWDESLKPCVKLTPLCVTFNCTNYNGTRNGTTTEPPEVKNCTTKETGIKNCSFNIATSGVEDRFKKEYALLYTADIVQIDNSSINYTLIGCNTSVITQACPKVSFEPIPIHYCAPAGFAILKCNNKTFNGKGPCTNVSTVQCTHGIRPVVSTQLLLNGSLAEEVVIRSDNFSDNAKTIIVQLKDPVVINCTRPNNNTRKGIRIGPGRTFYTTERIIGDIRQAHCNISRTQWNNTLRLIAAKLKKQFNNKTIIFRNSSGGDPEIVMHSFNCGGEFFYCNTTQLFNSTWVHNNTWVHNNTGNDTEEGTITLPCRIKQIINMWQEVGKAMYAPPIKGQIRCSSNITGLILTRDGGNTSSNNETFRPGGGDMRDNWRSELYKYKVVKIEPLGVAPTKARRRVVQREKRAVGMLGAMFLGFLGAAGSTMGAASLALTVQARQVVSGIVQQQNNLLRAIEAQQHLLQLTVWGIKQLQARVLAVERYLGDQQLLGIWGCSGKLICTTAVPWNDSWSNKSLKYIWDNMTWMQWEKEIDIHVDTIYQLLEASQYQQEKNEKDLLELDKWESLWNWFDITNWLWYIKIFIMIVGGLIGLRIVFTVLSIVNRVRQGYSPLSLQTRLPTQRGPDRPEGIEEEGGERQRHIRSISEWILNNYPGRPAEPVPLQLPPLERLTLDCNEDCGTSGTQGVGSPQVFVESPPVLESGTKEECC

COc1cc(/C=C2\SC(=S)NC2=O)ccc1OS(=O)(=O)c1ccccc1
IC50: 18 µM (active)

CCOc1ccc(NC(=NCc2ccc3c(c2)OCO3)SC2CC(=O)N(c3ccc(C(=O)O)cc3)C2=O)cc1 (stereo not drawn)
IC50: 25.9 µM (active)

CC(Oc1ccc(Cl)cc1Cl)C(=O)Nc1ccc(S(=O)(=O)Nc2cnc3ccccc3n2)cc1 (stereo not drawn)
IC50: 15.7 µM (active)
